# Experiments:
# Assay type in all cases: in vivo, humans
# U.S. adults [1] = assay: NHANES: self-reported urgency to empty the bowels by total riboflavin intake; details: highest two quartiles of riboflavin intake, FIG. 4
# Protocol: (§1) For this analysis, data from adults aged 20 years and over in the survey years 2005-2010 were selected. Participants were selected using a complex, multi-stage probability sampling design to produce a representative sample. Demographic information (gender, age, ethnicity, education, poverty-income ratio) was provided by self-report during an interview conducted by a trained interviewer in the participant's home. Questions relating to Bowel Health were administered to adults aged 20 years and older in the mobile examination center by means of a computer-assisted personal interviewing system. […] Pregnancy status in women aged 20 to 44 years was determined by self-report; negative responses were confirmed with a urinary pregnancy test. […]
# (§2) The Bowel Health questionnaire in survey cycles 2005-2006 and 2007-2008 consisted of six questions: four relate to the assessment of the Fecal Incontinence Severity Index (Rockwood, et al 1999 Dis Colon Rectum 42, 1525-1532) one question requests participants' self-reported weekly bowel motion frequency, and one question was about normal stool type on the Bristol Stool Scale (Lewis et al 1997 Scand J Gastroenterol 32: 920-924). A Fecal Incontinence Intensity Score (FISI) was calculated and binned into four categories using the RANK procedure to obtain approximately equal categories. […]
# U.S. adults [2] = assay: NHANES 2005-2010 observational analysis: linear regression of self-reported bowel motion frequency on riboflavin intake
# Protocol: Data were obtained from NHANES, a representative survey that measures the health and nutritional status of the U.S. non-institutionalized population. Research protocols were reviewed and approved by the National Center for Health Statistics Research Ethics Review Board (protocol #2005-2006). Ethical review of the protocols used in NHANES protocols is conducted annually, with ongoing changes submitted through an amendment process. All participants gave written consent before participation. Information that could potentially identify participants is removed before data is made publicly available.
# For this analysis, data from adults aged 20 years and over in the survey years 2005-2010 were selected. Participants were selected using a complex, multi-stage probability sampling design to produce a representative sample. Demographic information (gender, age, ethnicity, education, poverty-income ratio) was provided by self-report during an interview conducted by a trained interviewer in the participant's home. Questions relating to Bowel Health were administered to adults aged 20 years and older in the mobile examination center by means of a computer-assisted personal interviewing system. Dietary assessment was conducted by means of two 24-hour dietary recalls, the first conducted in-person at the mobile examination center, and the second conducted by telephone 3 to 10 days after the dietary interview but not on the same day of the week. Pregnancy status in women aged 20 to 44 years was determined by self-report; negative responses were confirmed with a urinary pregnancy test. […] For the survey cycles 2007-2010, the total supplemental intake based on the 30 days questionnaire was also used, based on the totals provided in the dataset. Subjects who self-reported inflammatory bowel disease were excluded.
# The Bowel Health questionnaire in survey cycles 2005-2006 and 2007-2008 consisted of six questions: four relate to the assessment of the Fecal Incontinence Severity Index (Rockwood, et al 1999 Dis Colon Rectum 42, 1525-1532) one question requests participants' self-reported weekly bowel motion frequency, and one question was about normal stool type on the Bristol Stool Scale (Lewis et al 1997 Scand J Gastroenterol 32: 920-924). A Fecal Incontinence Intensity Score (FISI) was calculated and binned into four categories using the RANK procedure to obtain approximately equal categories. In the 2009-2010 survey cycle, questions about bowel evacuation urgency, constipation and diarrhea incidence over the previous year, and laxative use over the past 30 days, were added.
# Statistical analyses were performed using SAS version 9.3 (SAS Institute Inc., Cary, N.C., USA). Statistical significance was set at 0.05.
# Gender, ethnicity, education, age (continuous), Poverty-Income Ratio (PIR, continuous) were included in the socio-demographic chunk, and vigorous physical activity over the past 30 days (Y/N), dietary supplement use (Y/N), fiber and moisture intake (continuous), self-report of thyroid problems (Y/N) and use of prescription medication (1 or less vs 2 or more) were included in the diet and health chunk.
# The final linear regression using significant predictors was performed using […] to generate the correct variance estimation that takes the complex survey design into account.
# U.S. adults [3] = assay: NHANES: self-reported common stool type (Bristol Stool Scale) by quartiles of riboflavin intake; details: as riboflavin intake increases (quartiles), FIG. 1
# Protocol: as §1, §2
# U.S. adults [4] = assay: NHANES: normalcy of bowel motion frequency (3-21 bowel motions per week) by riboflavin intake quartiles; details: as riboflavin intake increases, food and total riboflavin, FIG. 2
# Protocol: as §1, §2
# [5] = Adjusted model (demographics): gender, age, education, Poverty-Income Ratio, ethnicity
# [6] = Adjusted model (diet/health): prescription medications, thyroid problem, fiber and moisture intake
# [7] = Adjusted model (full): all variables
structure (smiles),measurement,setting,value
Cc1cc2nc3c(=O)[nH]c(=O)nc-3n(C[C@H](O)[C@H](O)[C@H](O)CO)c2cc1C [riboflavin],"Number of respondents reporting bowel motion urgency occurs ""rarely""",U.S. adults [1],significant increase
same,"Beta-coefficient, bowel motion frequency, DS riboflavin intake",U.S. adults [2]; [5],0.0108
same,"Beta-coefficient, bowel motion frequency, Food riboflavin intake",U.S. adults [2]; [5],0.253
same,"Beta-coefficient, bowel motion frequency, Total riboflavin intake",U.S. adults [2]; [5],0.0130
same,"Beta-coefficient, bowel motion frequency, DS riboflavin intake",U.S. adults [2]; [6],0.00807
same,"Beta-coefficient, bowel motion frequency, Food riboflavin intake",U.S. adults [2]; [6],0.0465
same,"Beta-coefficient, bowel motion frequency, Total riboflavin intake",U.S. adults [2]; [6],0.00684
same,"Beta-coefficient, bowel motion frequency, DS riboflavin intake",U.S. adults [2]; [7],0.00895
same,"Beta-coefficient, bowel motion frequency, Food riboflavin intake",U.S. adults [2]; [7],0.0191
same,"Beta-coefficient, bowel motion frequency, Total riboflavin intake",U.S. adults [2]; [7],0.00974
same,"Beta-coefficient, bowel motion frequency, Food riboflavin intake",U.S. adults [2]; Crude model,0.355
same,"Beta-coefficient, bowel motion frequency, Total riboflavin intake",U.S. adults [2]; Crude model,0.0113
same,"Beta-coefficient, bowel motion frequency, DS riboflavin intake","U.S. adults [2]; Crude model, dietary supplements",0.0101
same,Riboflavin intake at which effect on bowel health parameters was seen,U.S. adults [2]; above the median intake,> 2.1 mg/day
same,Relationship between food riboflavin intake and bowel motion frequency,"U.S. adults [2]; after adjusting for socio-demographic, diet and lifestyle co-factors",not significant
same,Relationship between riboflavin intake and bowel motion frequency,"U.S. adults [2]; crude model, intakes from food, dietary supplements and in total","significant, positive relationship"
same,"Relationship between total riboflavin intake and bowel motion frequency, stratified by fiber intake","U.S. adults [2]; dietary fiber intake low, less than the median",no significant relationship
same,Change in bowel motion frequency with riboflavin,U.S. adults [2]; fibre intakes in the upper three quartiles (above 9 g/day),Increases
same,"Relationship between riboflavin intake from dietary supplements and in total, and bowel motion frequency",U.S. adults [2]; fully adjusted model,"significant, positive relationship"
same,Riboflavin intake at which effect on bowel health parameters was especially seen,U.S. adults [2]; highest quartile of riboflavin intake,> 3.1 mg/day
same,"Relationship between total riboflavin intake and bowel motion frequency, stratified by fiber intake",U.S. adults [2]; top two quartiles of dietary fiber intake,only significant
same,Change in stool type 4 (normal defecation),U.S. adults [3],increase
same,Change in stool types 2 (slow transit time) and 5 (soft-fluid stool),U.S. adults [3],reduction
same,Proportion of the population with normal bowel motion patterns,U.S. adults [4],increases

# From US20220023303A1 (DSM IP Assets B.V., priority 2018, published 2022)
